Target: T1, HCN4 (Homo sapiens, UniProt Q9Y3Q4)
T1 sequence (Q9Y3Q4 1-1203): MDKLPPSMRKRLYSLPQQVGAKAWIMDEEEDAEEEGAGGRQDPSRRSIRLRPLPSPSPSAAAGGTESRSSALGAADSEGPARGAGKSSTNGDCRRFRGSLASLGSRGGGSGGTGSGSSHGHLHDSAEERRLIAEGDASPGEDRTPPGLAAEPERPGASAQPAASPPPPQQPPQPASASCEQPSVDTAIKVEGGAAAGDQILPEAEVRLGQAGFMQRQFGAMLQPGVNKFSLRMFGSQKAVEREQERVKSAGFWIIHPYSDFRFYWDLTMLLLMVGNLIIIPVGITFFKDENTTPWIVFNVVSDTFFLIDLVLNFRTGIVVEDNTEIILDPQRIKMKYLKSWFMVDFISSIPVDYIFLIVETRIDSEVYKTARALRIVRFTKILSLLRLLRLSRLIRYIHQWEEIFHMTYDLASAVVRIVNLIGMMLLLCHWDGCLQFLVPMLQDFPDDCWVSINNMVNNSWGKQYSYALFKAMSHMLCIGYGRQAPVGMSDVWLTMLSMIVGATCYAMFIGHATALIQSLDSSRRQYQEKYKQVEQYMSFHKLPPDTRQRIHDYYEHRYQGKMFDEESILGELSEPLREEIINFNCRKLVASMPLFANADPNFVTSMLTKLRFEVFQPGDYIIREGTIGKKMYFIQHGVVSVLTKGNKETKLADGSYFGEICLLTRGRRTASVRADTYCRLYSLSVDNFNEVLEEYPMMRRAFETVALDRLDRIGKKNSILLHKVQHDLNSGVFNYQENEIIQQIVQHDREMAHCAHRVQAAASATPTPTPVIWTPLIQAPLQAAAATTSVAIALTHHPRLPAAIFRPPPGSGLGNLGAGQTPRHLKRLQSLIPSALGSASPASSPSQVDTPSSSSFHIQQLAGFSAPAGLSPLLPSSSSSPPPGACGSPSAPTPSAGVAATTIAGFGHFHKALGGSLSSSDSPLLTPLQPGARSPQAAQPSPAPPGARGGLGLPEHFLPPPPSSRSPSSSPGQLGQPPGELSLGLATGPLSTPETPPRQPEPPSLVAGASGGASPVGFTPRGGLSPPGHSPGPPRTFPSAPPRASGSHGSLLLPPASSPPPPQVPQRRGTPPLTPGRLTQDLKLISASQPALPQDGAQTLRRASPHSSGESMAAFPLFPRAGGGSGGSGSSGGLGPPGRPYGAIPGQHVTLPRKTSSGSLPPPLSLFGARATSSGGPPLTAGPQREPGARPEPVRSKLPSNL
Assay: Two-electrode voltage clamp of HCN4 in Xenopus oocytes
Type: cell-based
Conditions: 10 µM CP1
From the text: Since CP1 has a similar effect to PIP2 in mediating VSD-pore coupling in KCNQ channels, we tested if CP1 has effects on other ion channels that are also sensitive to PIP2 or are voltage activated and share general structural features of the VSD and the pore with KCNQ. […] On the other hand, NaV1.5 and KV4.2 are voltage-gated ion channels.
Fig. 6 Effects of CP1 on other ion channels expressed in Xenopus oocytes. a Currents of Kir1.1, CaV1.2, NaV1.5, hERG, and KV4.2 before and after application of 10 µM CP1, respectively. The voltages for holding, test, and returning pulses were Kir1.1, 0 mV, −100 to +60 mV, 0; CaV1.2, −100 mV, −100 to +60, −100 mV; NaV1.5, −100, −120 to +40 mV, −120 mV; hERG, −80 mV, −90 to +60 mV, −60 mV; KV4.2, −80 mV, −100 mV to +80 mV, −40 mV; HCN4, −30 mV, −30 to −140 mV, −120 mV. b Current–voltage relations of Kir1.1 channel in the absence or presence of 10 µM CP1 (n = 7). c–g G–V relations of indicated channels with and without 10 µM CP1. The ΔV1/2 of G–V relations (mV) are CaV1.2, 3.38 ± 0.71 mV (c); NaV1.5, −2.26 ± 0.95 mV (d); hERG, 6.85 ± 1.81 mV (e); KV 4.2, −2.26 ± 2.88 mV (f); HCN4, 17.13 ± 1.59 mV (g).
Complementary DNA (cDNA) encoding human KCNQ1 (UniProtKB/Swiss‐Prot under accession no. P51787), KCNQ2 (O43526), KCNQ3 (O43525), KCNE1 (P15382), Kir1.1 (P48048), hERG (Q12809), KV4.2 (Q63881), NaV1.5 (Q14524), NaV β1 (Q07699), CaV1.2 (Q13936), CaV β1a (Q02641), CaV α2/δ1 (P54289), and HCN4 (Q9Y3Q4) were subcloned into oocyte expression vectors, respectively. Site-directed mutations of the KCNQ1 channel were all produced by overlap extension polymerase chain reaction (PCR) with high-fidelity Pfu polymerase (Stratagene, CA). The presence of the desired mutation was verified by sequencing the PCR-amplified regions. All the primer sequences used in this study are available in Supplementary Table 1. The complementary RNA (cRNA) of all these channels and mutations was transcribed in vitro with the T3, T7, or SP6 polymerase mMessage mMachine kit (Invitrogen, Thermo Fisher Scientific, MO).
The whole-oocyte ionic currents were recorded with a GeneClamp 500B amplifier (Axon Instruments, CA) or iTEV90 amplifier (HEKA, Germany) and then sampled at 1 kHz and low-pass-filtered at 2 kHz. The Patchmaster software (HEKA, Germany) was used to acquire data. The Kir1.1 current was recorded with a high K^+ bath solution containing (in mM) 96 KCl, 4 NaCl, 1 CaCl2, 2 MgCl2, and 10 HEPES, pH 7.3–7.4. The HCN4 current was recorded in ND66 solution containing (in mM) 66 NaCl, 32 KCl, 1.8 CaCl2, 1 MgCl2, and 5 HEPES, pH 7.6. All the other potassium channels were recorded in ND96 solution. The currents of CaV1.2 channel were recorded in 40 mM Ba^2+ bath solution containing (in mM) 40 Ba(OH)2, 50 TEA-OH, 2 KOH, and 5 HEPES, adjusted to pH 7.4 with methanesulfonic acid. CP1 (DISODIUM 5-BROMO-2-[9-CHLORO-3-(SULFONATOOXY) NAPHTHO [1,2-B] THIEN-2-YL]-1H-INDOL-3-YL SULFATE, Sigma-Aldrich, MO) and Chromanol 293B (Sigma-Aldrich, MO) were dissolved in bath solutions. All the chemicals were purchased from Sigma-Aldrich. To measure the I–V relations of the Kir1.1 channel, the test voltage was set from −100 to +60 mV for 1 s with 20-mV increments. The test pulses were stepped from a holding potential of 0 mV and then stepped back to 0 mV. The HCN4 currents were recorded by a test pulse between −30 and −140 mV in 10-mV step from a holding potential of −30 mV. For all the other potassium channels and CaV1.2 channel, the holding potential was −80 or −100 mV, and the test pulse was applied with 10-mV increment, which was followed with a repolarization pulse at −40 mV before returning to the holding potential. The durations of test and the repolarization pulse vary for different channels to allow the activation and deactivation of the channel to reach their steady states.

With `O=S(=O)([O-])Oc1c(-c2sc3c(ccc4cccc(Cl)c43)c2OS(=O)(=O)[O-])[nH]c2ccc(Br)cc12.[Na+].[Na+]` [CP1, DISODIUM 5-BROMO-2-[9-CHLORO-3-(SULFONATOOXY) NAPHTHO [1,2-B] THIEN-2-YL]-1H-INDOL-3-YL SULFATE] the “ΔV1/2 of G–V relations” value was 17.13 ± 1.59 mV, the “G/Gmax Mean (Fig. 6g)” value (voltage -30 mV) was 0.0988 and the “G/Gmax Mean (Fig. 6g)” value (voltage -40 mV) was 0.0945. For the same compound, the “G/Gmax Mean (Fig. 6g)” value (voltage -50 mV) was 0.1008, the “G/Gmax Mean (Fig. 6g)” value (voltage -60 mV) was 0.1162 and the “G/Gmax Mean (Fig. 6g)” value (voltage -70 mV) was 0.1464. The “G/Gmax Mean (Fig. 6g)” value (voltage -80 mV) was 0.2025, the “G/Gmax Mean (Fig. 6g)” value (voltage -90 mV) was 0.2959 and the “G/Gmax Mean (Fig. 6g)” value (voltage -100 mV) was 0.4355. The “G/Gmax Mean (Fig. 6g)” value (voltage -110 mV) was 0.6065, the “G/Gmax Mean (Fig. 6g)” value (voltage -120 mV) was 0.7756 and the “G/Gmax Mean (Fig. 6g)” value (voltage -130 mV) was 0.9097. For the same compound, the “G/Gmax Mean (Fig. 6g)” value (voltage -140 mV) was 1.0000.
